Literature values in patent publication US20070298029A1, “Treatment of Neurodegenerative Diseases by the Use of Degs Inhibitors” (priority 2004, published 2007).

Molecular target: T1, dihydroceramide desaturase (Rattus norvegicus, UniProt Q5XIF5)
T1 sequence (Q5XIF5 1-323): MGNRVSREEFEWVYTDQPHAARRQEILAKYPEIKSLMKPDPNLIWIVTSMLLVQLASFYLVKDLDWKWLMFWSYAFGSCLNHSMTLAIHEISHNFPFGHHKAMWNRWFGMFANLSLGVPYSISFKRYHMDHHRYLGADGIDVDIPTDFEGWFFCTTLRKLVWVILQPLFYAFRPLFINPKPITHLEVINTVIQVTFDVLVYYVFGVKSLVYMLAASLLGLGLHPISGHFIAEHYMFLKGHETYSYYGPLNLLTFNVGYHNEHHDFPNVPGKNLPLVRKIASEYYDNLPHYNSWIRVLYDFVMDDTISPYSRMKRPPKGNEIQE
Details: competitive inhibitor

Ki: 6 µM
SMILES: CCCCCCCCCCCCCC1=C([C@H](O)[C@@H](CO)NC(=O)CCCCCCC)C1 [GT11, N-[(1R,2S)-2-hydroxy-1-hydroxymethyl-2-(2-tridecyl-1-cyclopropenyl)ethyl]octanamide]
